Experimental data: patent US20200354327A1, “COMPOUND HAVING STAT3 INHIBITORY ACTIVITY AND USE THEREOF” (CYTUS H&B CO., LTD., priority 2017, published 2020)

Columns and labels:
Bcl-2 and Bcl-XL = experiment: Real-time polymerase chain reaction of anti-apoptotic genes; type: cell-based, human
Method: RNA isolation and real-time polymerase chain reaction were performed as described previously (Jung J E, et al. FASEB J. 19, 1296-1298 (2005)). Primer specific for human-derived Bcl-XL, Bcl-2, Twist, and GADPH genes were mixed with QuantiFast SYBR Green PCR master mix, and each gene was amplified using the Applied Biosystems 7300 real-time PCR system to compare the expression level.

U87-MG cells = experiment: Survival of mice injected with U87-MG cells; type: in vivo; conditions: versus DMSO
STAT3 [1] = target: T1, STAT3 (Homo sapiens, UniProt P40763); experiment: Western blot in human malignant breast cancer cell lines; type: cell-based; set-up: endogenous in cells; host or cells: L540, HDLM-2, U87-MG, MDA-MB-231, further human glioblastoma and breast cancer lines
Method: (§1) Western blot analysis was performed (Jung J E, et al. FASEB J. 19, 1296-1298 (2005)). The cells were washed two times with PBS and suspended in the lysate (50 mM Tris-HCl, pH 7.4, 350 mM NaCl, 1% Triton X-100, 0.5% Nonidet P-40, 10% glycerol, 0.1% SDS, 1 mM EDTA, 1 mM EGTA, 1 mM Na3VO4, 1 mM PMSF, protease and phosphorylation inhibitor) and the cell membrane and nuclear membrane were crushed to lyse the cells. The insoluble protein fraction was removed by centrifugation, and the supernatant was mixed with SDS electrophoresis buffer and electrophoresis (SDS-PAGE) was performed to detect the protein with the desired antibody and to confirm the protein expression level.
Target sequence in this assay (P40763 whole entry): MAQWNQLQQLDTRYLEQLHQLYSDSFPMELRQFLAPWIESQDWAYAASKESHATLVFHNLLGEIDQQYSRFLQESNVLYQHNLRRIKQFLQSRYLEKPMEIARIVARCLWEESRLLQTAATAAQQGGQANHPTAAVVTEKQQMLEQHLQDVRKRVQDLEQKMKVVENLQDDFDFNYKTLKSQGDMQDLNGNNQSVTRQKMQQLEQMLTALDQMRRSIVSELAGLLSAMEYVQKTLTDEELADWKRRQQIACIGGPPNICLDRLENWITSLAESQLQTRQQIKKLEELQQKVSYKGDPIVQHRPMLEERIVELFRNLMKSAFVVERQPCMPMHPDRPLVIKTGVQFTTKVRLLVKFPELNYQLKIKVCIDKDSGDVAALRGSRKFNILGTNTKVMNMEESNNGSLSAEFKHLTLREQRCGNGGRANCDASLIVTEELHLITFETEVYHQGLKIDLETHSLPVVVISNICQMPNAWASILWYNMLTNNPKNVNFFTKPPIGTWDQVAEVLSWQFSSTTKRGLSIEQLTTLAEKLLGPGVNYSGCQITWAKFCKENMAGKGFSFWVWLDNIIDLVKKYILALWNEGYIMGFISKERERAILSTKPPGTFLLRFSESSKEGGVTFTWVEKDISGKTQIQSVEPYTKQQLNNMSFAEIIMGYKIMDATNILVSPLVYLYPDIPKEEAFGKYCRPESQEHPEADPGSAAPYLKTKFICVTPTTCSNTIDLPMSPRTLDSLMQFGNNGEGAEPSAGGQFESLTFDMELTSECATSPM

[2] = test system: human malignant glioblastoma; experiment: Cell viability of human malignant glioblastoma with or without IL-6; type: cell-based; conditions: treated with IL-6 for 24 or 48 hours or not; various concentrations
MDA-MB-231 cells = experiment: Matrigel invasion assay, MDA-MB-231; type: cell-based, human; conditions: MDA-MB-231, 24 hours, versus DMSO
Method: The growth factor-reduced Matrigel was diluted with a serum-free culture solution at a 1:3 ratio, transferred to a 24-well plate, and solidified at 37° C. for 5 hours. The cells were placed in a culture solution containing 1% serum and added to the solidified Matrigel, 600 μl of a culture solution containing 10% serum to which fibronectin was added at a concentration of […] was added thereto, and the cells were cultured for 24 hours. Thereafter, the cells were fixed and stained by adding Diffquick solution thereto and then observed under a Leica Application Suite microscope, and images were taken.

STAT3 [3] = target: T1, STAT3; experiment: STAT3 dimerization (STAT3-Flag / STAT3-HA, immunoprecipitation and western blot in HEK293T); type: cell-based; set-up: Flag; HA; expressed in transfected cells; host or cells: HEK293T
Target sequence in this assay (P40763 whole entry, species assumed): as the sequence (P40763 whole entry) above

STAT3 [4] = experiment: Western blot analysis of the 13 selected compounds; type: cell-based; conditions: among the 13 selected compounds
Method: as §1

STAT3 [5] = target: T1, STAT3; experiment: STAT3-TA-luciferase assay in HEK293T cells; type: cell-based
Method: Assay on the expression of luciferase was performed as previously described (Jung J E, et al. FASEB J. 19, 1296-1298 (2005)). Plasmid DNA having STAT3-TA-luciferase as a reporter construct was temporarily expressed in HEK293T cells using Lipofectamine 2000, the HEK293T cells were treated with ODZ10117, the level of STAT3 expression was measured using a luminometer, and the inhibitory effect was compared with that of the DMSO-treated group.
Target sequence in this assay (P40763 whole entry): as above

[6] = test system: p-STAT3, Cleaved Caspase-3, Bcl-XL, Ki67 and MMP2; experiment: Tumor histology and immunostaining of xenograft tumor sections; type: in vivo, BALB/c nude mice; conditions: 7th day of drug administration
Method: Tumors isolated from mice were fixed with formalin and embedded with paraffin, and sections were cut from each paraffin block. For histological evaluation, the sections were stained with hematoxylin-eosin, phospho-STAT3, cleaved caspase-3, Bcl-XL, Ki67, and pro/active MMP-2, respectively. The paraffin of the sections was removed, moisture was removed using alcohol, and then the sections were heated in 10 mM sodium citrate buffer (pH: 6.0) for 5 minutes with microwaves. Non-specific binding was removed by reacting the sections with a PBS solution containing 2.5% bovine serum albumin and 2% normal goat serum for 1 hour. The sections were reacted with antibodies against phospho-STAT3, cleaved caspase-3, Bcl-XL, Ki67, and pro/active MMP-2 diluted 1:100 overnight at 4° C. As a negative control, the sections were reacted with a dilution solution in a state of not containing primary antibodies. The sections were then washed and reacted with secondary antibodies labeled with appropriate biotin, and the location and expression of the bound antibodies were confirmed using an avidin-biotin-horseradish complex. For histological evaluation, each stained section was observed under a microscope at 100-fold and 400-fold magnifications and analysis was performed using a Sony XC-77 CCD camera and a microcomputer imaging device Model 4 image analysis system.

MMP-2 = experiment: Activity of MMP-2 in U87-MG and MDA-MB-231 cells; type: cell-based, human; conditions: U87-MG and MDA-MB-231, 24 hours
STAT3 [7] = target: T1, STAT3; experiment: Nuclear translocation of STAT3 (fluorescence microscope); type: cell-based; set-up: endogenous in cells; host or cells: L540, HDLM-2, U87-MG, MDA-MB-231, further human glioblastoma and breast cancer lines; conditions: compared with the control group
Target sequence in this assay (P40763 whole entry): as above

STAT3 [8] = target: T1, STAT3; experiment: Western blot in STAT3-phosphorylated human malignant glioblastoma; type: cell-based; set-up: endogenous in cells; host or cells: L540, HDLM-2, U87-MG, MDA-MB-231, further human glioblastoma and breast cancer lines
Method: as §1
Target sequence in this assay (P40763 whole entry): as above

Clc1ccc(OCc2noc(C(Cl)(Cl)Cl)n2)c(Cl)c1 [ODZ10117, 3-(2,4-dichloro-phenoxymethyl)-5-trichloromethyl-[1,2,4]oxadiazole]
expression levels of anti-apoptotic genes Bcl-2 and Bcl-XL (Bcl-2 and Bcl-XL): effectively inhibited the expression of these genes
survival time (U87-MG cells): survival time increased
STAT3 inhibitory efficacy compared with napabucasin (STAT3 [1]): STAT3 inhibitory efficacy similar to that of napabucasin at high concentrations
phosphorylation of tyrosine 705 of STAT3 (STAT3 [1]): inhibited the phosphorylation of tyrosine 705 of STAT3 in human malignant breast cancer cell lines in a concentration-dependent manner
time to complete inhibition of phosphorylation of STAT3 after treatment (STAT3 [1]): ≤ 2 h
STAT3 inhibitory efficacy compared with known inhibitors (STAT3 [1]; versus NSC628869 and NSC74859): superior STAT3 inhibitory efficacy to NSC628869 and NSC74859
cell survival [2]: cell survival was inhibited
cell invasion (MDA-MB-231 cells): significantly decreased cell invasion in both the two cell lines
STAT3 dimerization (STAT3 [3]): inhibited STAT3 dimerization
STAT3 dimerization inhibitory efficacy compared with napabucasin (STAT3 [3]): superior STAT3 dimerization inhibitory efficacy to napabucasin
STAT3 inhibitory action (Western blot) (STAT3 [4]): judged to be extremely superior
promoter activity of STAT3 (STAT3 [5]; compared with DMSO-treated group): significantly decreased the promoter activity of STAT3
transcriptional activity of STAT3 (STAT3 [5]; various concentrations): inhibited the transcriptional activity of STAT3 in a concentration-dependent manner
activity of caspase-3 in tumor tissues [6]: increased the activity of caspase-3
expression of Bcl-XL in tumor tissues [6]: significantly decreased the expression
expression of Ki67 in tumor tissues [6]: significantly decreased the expression of Ki67
expression of pro/active MMP2 in tumor tissues [6]: significantly decreased the expression
phosphorylation of STAT3 in tumor tissues ([6]; versus DMSO): phosphorylation of STAT3 significantly decreased
activity of MMP-2 (MMP-2): significantly decreased
nuclear translocation of STAT3 (STAT3 [7]): further inhibited nuclear translocation of STAT3
phosphorylation of tyrosine 705 of STAT3 (STAT3 [8]): inhibited the phosphorylation of tyrosine 705 of STAT3 in STAT3-phosphorylated human malignant glioblastoma in a concentration-dependent manner
time to complete inhibition of phosphorylation of STAT3 after treatment (STAT3 [8]): ≤ 2 h
STAT3 inhibitory efficacy compared with known inhibitors (STAT3 [8]; versus NSC628869 and NSC74859): superior STAT3 inhibitory efficacy to NSC628869 and NSC74859
